Data as given in patent US8703805B2 (Exelixis Patent Company LLC, priority 2005, dated 2014).

Tested on: LXRα and/or LXRβ
Assay: LXR/LXRE co-transfection assay (luciferase reporter, CV-1 cells)
Format: cell-based, human
Details: IC50 or EC50 for LXR (LXRα and/or LXRβ, not distinguished), tested as described in Example 109, CV-1 cells
Method in brief: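 Transient co-transfection of CV-1 cells with full-length human LXRα or LXRβ plus RXRα expression plasmids and an LXREx1-Tk-luciferase reporter; compounds (10 μM screen, ≤1% DMSO) incubated 20 h at 37 °C. Luminescence read after lysis; EC50/IC50 from 8-point half-log curves, efficacy relative to a high control or DMSO.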

Row | SMILES | EC50 [µM]
1 | CC(C)(O)c1cc(-c2ccc(-c3cccc(S(C)(=O)=O)c3)cn2)n(-c2ccccc2Cl)n1 [Example 119, 2-(1-(2-chlorophenyl)-5-(5-(3-(methylsulfonyl)phenyl)pyridin-2-yl)-1H-pyrazol-3-yl)propan-2-ol] | 1 to 10
2 | CC(C)(O)c1nn(-c2cccc(F)c2Cl)c(-c2ccc(-c3cccc(S(C)(=O)=O)c3)s2)c1Br [Example 1372, 2-[4-bromo-1-(2-chloro-3-fluorophenyl)-5-{5-[3-(methylsulfonyl)phenyl]-2-thienyl}-1H-pyrazol-3-yl]propan-2-ol] | < 1
3 | CS(=O)(=O)c1cccc(-c2ccc(-c3cc(C4(C#N)CC4)nn3-c3ccccc3Cl)s2)c1 [Example 1188, 1-[1-(2-chlorophenyl)-5-{5-[3-(methylsulfonyl)phenyl]-2-thienyl}-1H-pyrazol-3-yl]cyclopropanecarbonitrile] | < 1
4 | CN(Cc1ccsc1)Cc1cc(-c2ccc(-c3cccc(S(C)(=O)=O)c3)s2)n(-c2ccccc2Cl)n1 [Example 544, 1-[1-(2-chlorophenyl)-5-{5-[3-(methylsulfonyl)phenyl]-2-thienyl}-1H-pyrazol-3-yl]-N-methyl-N-(3-thienylmethyl)methanamine] | 1 to 10
5 | CC(C)(O)c1cc(-c2ccc(-c3cccc(C#N)c3)s2)n(-c2ccccc2Cl)n1 [Example 1269, 3-{5-[1-(2-chlorophenyl)-3-(1-hydroxy-1-methylethyl)-1H-pyrazol-5-yl]-2-thienyl}benzonitrile] | 1 to 10
6 | CC(C)(O)c1cc(-c2ccc(-c3cccc(S(C)(=O)=O)c3)cc2Cl)n(Cc2cccc(Cl)c2Cl)n1 [Example 1402, 2-(5-(3-chloro-3′-(methylsulfonyl)biphenyl-4-yl)-1-(2,3-dichlorobenzyl)-1H-pyrazol-3-yl)propan-2-ol] | < 1
7 | CC(C)(O)c1ccc(-c2ccc(-c3cc(C(F)(F)F)nn3-c3ncccc3C(F)(F)F)s2)cc1 [Example 1253, 2-[4-(5-{3-(trifluoromethyl)-1-[3-(trifluoromethyl)pyridin-2-yl]-1H-pyrazol-5-yl}-2-thienyl)phenyl]propan-2-ol] | 1 to 10
8 | CC(C)(O)c1cc(-c2ccc(-c3cccc(S(C)(=O)=O)c3)s2)n(-c2ccc(Cl)cc2Cl)n1 [Example 1280, 2-[1-(2,4-dichlorophenyl)-5-{5-[3-(methylsulfonyl)phenyl]-2-thienyl}-1H-pyrazol-3-yl]propan-2-ol] | 1 to 10
9 | COC(=O)c1cc(-c2ccccc2Cl)n(-c2ccc(-c3cccc(S(C)(=O)=O)c3)cn2)n1 [Example 1230, methyl 5-(2-chlorophenyl)-1-{5-[3-(methylsulfonyl)phenyl]pyridin-2-yl}-1H-pyrazole-3-carboxylate] | 1 to 10
10 | CC(C)(CN)c1cc(-c2ccc(-c3cccc(S(C)(=O)=O)c3)s2)n(-c2ccccc2Cl)n1 [Example 1192, 2-[1-(2-chlorophenyl)-5-{5-[3-(methylsulfonyl)phenyl]-2-thienyl}-1H-pyrazol-3-yl]-2-methylpropan-1-amine] | < 1
11 | CS(=O)(=O)c1cccc(-c2ccc(-c3cc(C(F)(F)F)nn3-c3c(Cl)cccc3Cl)s2)c1 [Example 1227, 1-(2,6-dichlorophenyl)-5-{5-[3-(methylsulfonyl)phenyl]-2-thienyl}-3-(trifluoromethyl)-1H-pyrazole] | < 1
12 | CN(C)C1CCN(C(=O)c2cc(-c3ccc(-c4cccc(S(C)(=O)=O)c4)s3)n(-c3ccccc3Cl)n2)CC1 [Example 591, 1-{[1-(2-chlorophenyl)-5-{5-[3-(methylsulfonyl)phenyl]-2-thienyl}-1H-pyrazol-3-yl]carbonyl}-N,N-dimethylpiperidin-4-amine] | 1 to 10
13 | CCC(=O)c1cc(-c2ccc(-c3cccc(S(C)(=O)=O)c3)s2)n(-c2ccccc2Cl)n1 [Example 1173, 1-[1-(2-chlorophenyl)-5-{5-[3-(methylsulfonyl)phenyl]-2-thienyl}-1H-pyrazol-3-yl]propan-1-one] | < 1
14 | CC(C)S(=O)(=O)c1cccc(-c2ccc(-c3cc(C(F)(F)F)nn3-c3ccccc3C(F)(F)F)cc2)c1 [Example 1168, 5-{3′-[(1-methylethyl)sulfonyl)biphenyl-4-yl}-3-(trifluoromethyl)-1-[2-(trifluoromethyl)phenyl]-1H-pyrazole] | < 1
15 | CC(C)(CNC=O)c1cc(-c2ccc(-c3cccc(S(C)(=O)=O)c3)s2)n(-c2ccccc2Cl)n1 [Example 1204, N-{2-[1-(2-chlorophenyl)-5-{5-[3-(methylsulfonyl)phenyl]-2-thienyl}-1H-pyrazol-3-yl]-2-methylpropyl}formamide] | 1 to 10
16 | CC(=O)c1cc(-c2ccc(-c3cccc(S(C)(=O)=O)c3)s2)n(-c2cc(Cl)ccc2Oc2ccccc2)n1 [Example 1213, 1-(1-[5-chloro-2-(phenyloxy)phenyl]-5-{5-[3-(methylsulfonyl)phenyl]-2-thienyl}-1H-pyrazol-3-yl)ethanone] | < 1
17 | CC(C)(O)c1cccc(-n2nc(C(C)(C)O)cc2-c2ccc(-c3cccc(S(C)(=O)=O)c3)s2)c1 [Example 1226, 2-{3-[3-(1-hydroxy-1-methylethyl)-5-{5-[3-(methylsulfonyl)phenyl]-2-thienyl}-1H-pyrazol-1-yl]phenyl}propan-2-ol] | 1 to 10
18 | NS(=O)(=O)c1cccc(-c2ccc(-c3cc(C(F)(F)F)nn3-c3cc(Cl)ccc3Oc3ccccc3)s2)c1 [Example 1198, 3-(5-{1-[5-chloro-2-(phenyloxy)phenyl]-3-(trifluoromethyl)-1H-pyrazol-5-yl}-2-thienyl)benzenesulfonamide] | < 1
19 | Cn1ccc2cc(-c3ccc(-c4cc(C(C)(C)O)nn4-c4ccccc4Cl)cc3)ccc21 [Example 1284, 2-{1-(2-chlorophenyl)-5-[4-(1-methyl-1H-indol-5-yl)phenyl]-1H-pyrazol-3-yl}propan-2-ol] | 1 to 10
20 | CC(C)(O)c1cc(-c2ccc(-c3cccc(S(C)(=O)=O)c3)s2)n(-c2cc(Cl)ccc2Cl)n1 [Example 1279, 2-[1-(2,5-dichlorophenyl)-5-{5-[3-(methylsulfonyl)phenyl]-2-thienyl}-1H-pyrazol-3-yl]propan-2-ol] | 1 to 10

Other lines, results leading:

Row | EC50 [µM] | SMILES
21 | < 1 | CC(C)(O)c1cc(-c2ccc(-c3cccc(S(C)(=O)=O)c3)cc2)n(Cc2cccc(Cl)c2Cl)n1 [Example 1400, 2-(1-(2,3-dichlorobenzyl)-5-(3′-(methylsulfonyl)biphenyl-4-yl)-1H-pyrazol-3-yl)propan-2-ol]
22 | < 1 | CC(C)(O)c1cccc(-c2ccc(-c3cc(C(C)(C)O)nn3-c3ccccc3Cl)cc2)c1 [Example 1307, 2-{1-(2-chlorophenyl)-5-[3′-(1-hydroxy-1-methylethyl)biphenyl-4-yl]-1H-pyrazol-3-yl}propan-2-ol]
23 | 1 to 10 | CS(=O)(=O)c1cccc(-c2ccc(-c3cc(C(=O)O)nn3-c3ccccc3C(F)(F)F)s2)c1 [Example 1193, 5-{5-[3-(methylsulfonyl)phenyl]-2-thienyl}-1-[2-(trifluoromethyl)phenyl]-1H-pyrazole-3-carboxylic acid]
24 | < 1 | COC(=O)c1cc(-c2cc(-c3cccc(S(C)(=O)=O)c3)co2)n(-c2ccccc2Cl)n1 [Example 1234, methyl 1-(2-chlorophenyl)-5-{4-[3-(methylsulfonyl)phenyl]furan-2-yl}-1H-pyrazole-3-carboxylate]
25 | < 1 | CC(C)(O)c1cc(-c2ccc(-c3cccc(S(C)(=O)=O)c3)s2)n(-c2cccc(F)c2F)n1 [Example 1326, 2-[1-(2,3-difluorophenyl)-5-{5-[3-(methylsulfonyl)phenyl]-2-thienyl}-1H-pyrazol-3-yl]propan-2-ol]
26 | 1 to 10 | Cc1cc(-n2nc(C(C)(C)O)c(Cl)c2-c2c(Cl)cccc2Cl)ccc1-c1cccc(S(C)(=O)=O)c1 [Example 1419, 2-(4-chloro-5-(2,6-dichlorophenyl)-1-(2-methyl-3′-(methylsulfonyl)biphenyl-4-yl)-1H-pyrazol-3-yl)propan-2-ol]
27 | 1 to 10 | COc1cccc(-c2ccc(-c3cc(C(C)(C)O)nn3-c3ccccc3Cl)s2)c1OC [Example 859, 2-[5-{5-[2,3-bis(methyloxy)phenyl]-2-thienyl}-1-(2-chlorophenyl)-1H-pyrazol-3-yl]propan-2-ol]
28 | 1 to 10 | CC(C)(O)c1cc(-c2ccc(-c3ccc(S(C)(=O)=O)cc3)cc2)n(-c2ccccc2Cl)n1 [Example 1305, 2-{1-(2-chlorophenyl)-5-[4′-(methylsulfonyl)biphenyl-4-yl]-1H-pyrazol-3-yl}propan-2-ol]
29 | < 1 | CC(C)(O)c1nn(-c2c(Cl)cccc2Cl)c(-c2ccc(-c3cccc(S(C)(=O)=O)c3)cc2Cl)c1Cl [Example 144, 2-(4-chloro-5-(3-chloro-3′-(methylsulfonyl)biphenyl-4-yl)-1-(2,6-dichlorophenyl)-1H-pyrazol-3-yl)propan-2-ol]
30 | < 1 | Cn1c(-c2cccc(S(C)(=O)=O)c2)ccc1-c1cc(C(C)(C)O)nn1-c1ccccc1Cl [Example 1383, 2-(1-(2-chlorophenyl)-5-(1-methyl-5-(3-(methylsulfonyl)phenyl)-1H-pyrrol-2-yl)-1H-pyrazol-3-yl)propan-2-ol]
31 | 1 to 10 | CC(C)(O)c1cc(-c2cc(-c3cccc(S(C)(=O)=O)c3)cs2)n(-c2ccccc2Cl)n1 [Example 1250, 2-[1-(2-chlorophenyl)-5-{4-[3-(methylsulfonyl)phenyl]-2-thienyl}-1H-pyrazol-3-yl]propan-2-ol]
32 | < 1 | CC(C)(O)c1cc(-c2c(Cl)cccc2Cl)n(-c2ccc(-c3cccc(S(C)(=O)=O)c3)cc2Cl)n1 [Example 124, 2-(1-(3-chloro-3′-(methylsulfonyl)nbiphenyl-4-yl)-5-(2,6-dichlorophenyl)-1H-pyrazol-3-yl)propan-2-ol]
33 | 1 to 10 | CCS(=O)(=O)c1cccc(-c2ccc(-c3cc(C(C)(C)C(=O)O)nn3-c3ccccc3Cl)s2)c1 [Example 1302, 2-[1-(2-chlorophenyl)-5-{5-[3-(ethylsulfonyl)phenyl]-2-thienyl}-1H-pyrazol-3-yl]-2-methylpropanoic acid]
